Among the test systems are SN12C; OVCAR-8; MOLT-4; COLO 205; UACC-62; SF-539; A549; SW-620; HT-29; NCI-H522; NCI-H23; OVCAR-4; PC-3; HOP-92; 786-0; T47D; UO-31; IGROV-1; HCT-15.
Common to all, as to assay: growth of human tumour cells (NCI), 48 h

The structures appear in SMILES notation.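 Following 48 hours of exposure in 96-well plates, responses at five concentrations were used to interpolate endpoints linearly. The concentration for 50% growth inhibition is given as GI50.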 The source made the active and inactive calls. Rule as the data show it: active = GI50 up to about 1.1 µM and inactive = higher.

With `CCOC(=O)c1cc2cc(CSc3ccccc3)ccc2oc1=O`, the GI50 is > 100 µM (inactive) with SN12C; > 100 µM (inactive) in the experiment with OVCAR-8; > 100 µM (inactive) in the experiment on MOLT-4; > 100 µM (inactive) in the experiment with COLO 205; 45.9 µM (inactive) with UACC-62; 91.8 µM (inactive) with SF-539. For the same molecule, the GI50 in the experiment with A549 is 83.4 µM (inactive); with SW-620, > 100 µM (inactive); with HT-29, > 100 µM (inactive); in the experiment on NCI-H522 it was > 100 µM (inactive); with NCI-H23 it was > 100 µM (inactive); with OVCAR-4, > 100 µM (inactive). The GI50 in the experiment on PC-3 is 91.6 µM (inactive); in the experiment on HOP-92 it was > 100 µM (inactive); in the experiment with 786-0, 94.8 µM (inactive); in the experiment on T47D, > 100 µM (inactive); in the experiment with UO-31, 43.9 µM (inactive); in the experiment on IGROV-1 it was > 100 µM (inactive). Besides, the GI50 with HCT-15 was > 100 µM.
Regarding `COc1ccc2/c(=C/c3ccc(N(C)C)cc3)c3cc(-c4ccccc4)[n+](C)n3c2c1`, the GI50 in the experiment on SN12C is 0.223 µM (active); in the experiment on OVCAR-8, 0.0568 µM (active); in the experiment on MOLT-4 it was 0.18 µM (active); in the experiment on COLO 205, 0.0264 µM (active); with UACC-62, 0.199 µM (active); with SF-539, 0.495 µM (active). The GI50 with A549 is 0.261 µM (active); with SW-620 it was 0.15 µM (active); with HT-29, 0.104 µM (active); in the experiment with NCI-H522, 0.153 µM (active); in the experiment with NCI-H23 it was 0.158 µM (active); in the experiment on OVCAR-4, 0.347 µM (active). The GI50 in the experiment on PC-3 is 0.09 µM (active); in the experiment with HOP-92 it was 0.0931 µM (active); in the experiment with 786-0, 0.161 µM (active); in the experiment on T47D it was 0.0805 µM (active); in the experiment on UO-31, 0.735 µM (active); with IGROV-1, 0.112 µM (active). Besides, the GI50 in the experiment with HCT-15 was 1 µM.
Turning to `CC(=O)OCC1OC(n2c3c(cc(C#N)c2=S)CCC3)C(OC(C)=O)C(OC(C)=O)C1OC(C)=O` (centres undefined), the GI50 is > 100 µM (inactive) with SN12C; > 100 µM (inactive) in the experiment with OVCAR-8; 33.9 µM (inactive) in the experiment with MOLT-4; > 100 µM (inactive) with COLO 205; > 100 µM (inactive) with UACC-62; > 100 µM (inactive) with SF-539. In addition, the GI50 in the experiment with A549, with SW-620, with HT-29, in the experiment on NCI-H522, in the experiment with NCI-H23 and with OVCAR-4 was > 100 µM (inactive) each time. The GI50 with PC-3, in the experiment with HOP-92, with 786-0, in the experiment on T47D, in the experiment with UO-31 and with IGROV-1 was > 100 µM (inactive) each time. Also, the GI50 in the experiment with HCT-15 was > 100 µM.
For the molecule `CC(=O)N(CCc1ccccc1)C(C)(C#N)c1ccccc1` (centres undefined), the GI50 in the experiment with SN12C, with OVCAR-8, in the experiment on MOLT-4, in the experiment on COLO 205, in the experiment with UACC-62 and in the experiment with SF-539 was > 100 µM (inactive) in each case. Also, the GI50 in the experiment with A549, in the experiment on SW-620, in the experiment with HT-29, with NCI-H522, with NCI-H23 and in the experiment with OVCAR-4 was > 100 µM (inactive) in each case. The GI50 with PC-3, in the experiment with HOP-92, with 786-0, in the experiment with T47D, in the experiment with UO-31 and in the experiment on IGROV-1 was > 100 µM (inactive) throughout. Further, the GI50 in the experiment with HCT-15 was > 100 µM.
Turning to `CC1(C)CN=C(Nc2ccc(F)c(Cl)c2)S1`, the GI50 in the experiment with SN12C, in the experiment on OVCAR-8, with MOLT-4, in the experiment on COLO 205, in the experiment with UACC-62 and in the experiment on SF-539 was > 100 µM (inactive) each time. Also, the GI50 in the experiment on A549, in the experiment with SW-620, in the experiment on HT-29, in the experiment with NCI-H522, with NCI-H23 and in the experiment on OVCAR-4 was > 100 µM (inactive) in each case. Besides, the GI50 in the experiment on PC-3, with HOP-92, in the experiment with 786-0, in the experiment on T47D, in the experiment with UO-31 and in the experiment with IGROV-1 was > 100 µM (inactive) each time. Moreover, the GI50 with HCT-15 was > 100 µM.
Turning to `CC(=O)O[C@H]1C#C/C=C\C#CC[C@@H]2C(=O)N(C(=O)OC(C)(C)C)[C@@H]12`, the GI50 with SN12C is 18.8 µM (inactive); with OVCAR-8, 14.5 µM (inactive); with MOLT-4, 0.199 µM (active); in the experiment on COLO 205, 22.2 µM (inactive); in the experiment with UACC-62 it was 14.8 µM (inactive); in the experiment on SF-539, 1.67 µM (inactive). In addition, the GI50 in the experiment on A549 is 16.6 µM (inactive); in the experiment on SW-620, 48.8 µM (inactive); with HT-29, 36.1 µM (inactive); in the experiment with NCI-H522, 12.8 µM (inactive); in the experiment with NCI-H23, 12.6 µM (inactive); with OVCAR-4, > 100 µM (inactive). The GI50 was > 67.3 µM (inactive) in the experiment with PC-3; 26.9 µM (inactive) with HOP-92; 9.93 µM (inactive) in the experiment with 786-0; 32.7 µM (inactive) in the experiment on T47D; 2.91 µM (inactive) in the experiment with UO-31; 3.45 µM (inactive) in the experiment on IGROV-1. Besides, in the experiment on HCT-15, the GI50 is 13.6 µM.
Consider `O=[N+]([O-])c1ccc(O)c(/C=N/NC(=S)N2CCCCC2)c1`, for which the GI50 in the experiment with SN12C is 3.13 µM (inactive); with OVCAR-8, 1.8 µM (inactive); with MOLT-4, 1.34 µM (inactive); in the experiment on COLO 205 it was 2.38 µM (inactive); with UACC-62, 3.3 µM (inactive); in the experiment with SF-539, 6.82 µM (inactive). For the same molecule, the GI50 is 9.25 µM (inactive) in the experiment with A549; 3.13 µM (inactive) in the experiment with SW-620; 2.33 µM (inactive) in the experiment with HT-29; 3.52 µM (inactive) in the experiment on NCI-H522; 3.61 µM (inactive) in the experiment with NCI-H23; 6.24 µM (inactive) with OVCAR-4. Also, the GI50 is 7.48 µM (inactive) in the experiment with PC-3; 4.17 µM (inactive) in the experiment with HOP-92; 1.84 µM (inactive) in the experiment with 786-0; 6.18 µM (inactive) with T47D; 0.91 µM (active) in the experiment with UO-31; 1.67 µM (inactive) in the experiment on IGROV-1. This molecule also had a GI50 with HCT-15 of 1.39 µM.
`Cn1c2ccc(F)cc2c2ccc3c(c21)C(=O)C=CC3=O`: the GI50 in the experiment on SN12C was 15.4 µM (inactive); with OVCAR-8 it was 9.35 µM (inactive); in the experiment with MOLT-4, 0.9 µM (active); in the experiment with COLO 205, 7.08 µM (inactive); in the experiment on UACC-62 it was 20.5 µM (inactive); in the experiment with SF-539 it was 16.6 µM (inactive). Also, the GI50 in the experiment with A549 is > 64.1 µM (inactive); in the experiment on SW-620 it was 2.66 µM (inactive); in the experiment on HT-29, 19.5 µM (inactive); in the experiment on NCI-H522, 2.15 µM (inactive); in the experiment on NCI-H23, 13.8 µM (inactive); in the experiment with OVCAR-4 it was 5.14 µM (inactive). The GI50 in the experiment with PC-3 is 8.67 µM (inactive); in the experiment on HOP-92, 6.22 µM (inactive); with 786-0, 3.41 µM (inactive); with T47D it was 2.77 µM (inactive); with UO-31, 7.52 µM (inactive); in the experiment on IGROV-1, 14.6 µM (inactive). This molecule showed a GI50 in the experiment with HCT-15 of 13.7 µM.
Consider `C=CC(O)C#Cc1cnc(OC)nc1OC` (centres undefined), for which the GI50 in the experiment with SN12C is > 100 µM (inactive); in the experiment on OVCAR-8, > 100 µM (inactive); in the experiment on MOLT-4, 32.6 µM (inactive); in the experiment on COLO 205, 81.5 µM (inactive); in the experiment with UACC-62, > 100 µM (inactive); in the experiment with SF-539, > 100 µM (inactive). The GI50 in the experiment on A549 was > 100 µM (inactive); in the experiment with SW-620, 75.9 µM (inactive); in the experiment on HT-29 it was > 100 µM (inactive); with NCI-H522, 54.2 µM (inactive); in the experiment with NCI-H23 it was > 100 µM (inactive); in the experiment on OVCAR-4 it was > 100 µM (inactive). Also, the GI50 with PC-3 was > 100 µM (inactive); in the experiment on HOP-92, > 100 µM (inactive); in the experiment on 786-0 it was 38.6 µM (inactive); with T47D, > 100 µM (inactive); in the experiment with UO-31, > 100 µM (inactive); in the experiment on IGROV-1, > 100 µM (inactive). The GI50 with HCT-15 was > 100 µM.
As to `Cc1ccc2nc(-c3ccccc3)c(N=O)n2c1`, the GI50 is 20.2 µM (inactive) in the experiment with SN12C; 41 µM (inactive) with OVCAR-8; 28.4 µM (inactive) in the experiment with MOLT-4; 35.7 µM (inactive) with COLO 205; 22.6 µM (inactive) in the experiment with UACC-62; 29.2 µM (inactive) with SF-539. The GI50 in the experiment on A549 is 32.7 µM (inactive); in the experiment with SW-620 it was 53.6 µM (inactive); in the experiment on HT-29, 48 µM (inactive); in the experiment on NCI-H522, 36.1 µM (inactive); in the experiment on NCI-H23, 36.1 µM (inactive); with OVCAR-4 it was 26.2 µM (inactive). In addition, the GI50 with PC-3 is 62.7 µM (inactive); in the experiment on HOP-92, 77.1 µM (inactive); in the experiment on 786-0 it was 40.9 µM (inactive); in the experiment on T47D it was 71 µM (inactive); in the experiment on UO-31 it was 66.8 µM (inactive); with IGROV-1 it was 35.5 µM (inactive). Also, the GI50 in the experiment with HCT-15 was 34 µM.
`Cc1sccc1C(=S)Nc1ccc(Cl)c(/C=N/OC(C)(C)C)c1`: the GI50 in the experiment on SN12C is 12.5 µM (inactive); in the experiment with OVCAR-8, 17.1 µM (inactive); in the experiment on MOLT-4, 7.6 µM (inactive); with COLO 205 it was 13.9 µM (inactive); with UACC-62, 16.6 µM (inactive); with SF-539, 31.5 µM (inactive). For the same molecule, the GI50 is 20.2 µM (inactive) with A549; 37.9 µM (inactive) in the experiment with SW-620; 14.3 µM (inactive) in the experiment on HT-29; 12 µM (inactive) in the experiment on NCI-H522; 15.4 µM (inactive) with NCI-H23; 15.2 µM (inactive) in the experiment with OVCAR-4. Also, the GI50 with PC-3 was 15.4 µM (inactive); in the experiment with HOP-92, 13.9 µM (inactive); in the experiment on 786-0, 21.1 µM (inactive); in the experiment with T47D, 10.6 µM (inactive); with UO-31, 12.5 µM (inactive); in the experiment on IGROV-1, 13.5 µM (inactive). This molecule showed a GI50 in the experiment on HCT-15 of 15 µM.

For the origin of these results see ChEMBL document CHEMBL1201862, “PubChem BioAssay data set” (2004).
